Measurements: patent US12139492B2 (Endotarget Inc., priority 2021, dated 2024)

Assays:
Format in all cases: cell-based
BTK = BTK (Homo sapiens, UniProt Q06187); assay: BTK degradation, DC50 and Dmax of Table 1 (cell line not given); set-up: endogenous in cells; conditions: for DC50: concentration giving 50% reduction of BTK expression level
JeKo-1 cells = assay: Antiproliferative effect, MTS cell viability assay, JeKo-1 cells; conditions: Homo sapiens; JeKo-1 mantle cell lymphoma cells; read-out: IC50 (anti-proliferation) JeKO-1 cells
Summary of the method: (§1)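 Mino and JeKo-1 mantle B-cell lymphoma lines were exposed to compound at 0, 0.001, 0.01, 0.1, 1 and 10 μM for 72 h. Viability was read by MTS reduction to formazan, measured as absorbance at 490 nm.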

Mino cells = assay: Antiproliferative effect, MTS cell viability assay, Mino cells; conditions: Homo sapiens, MINO, Mino mantle cell lymphoma cells; read-out: IC50 (anti-proliferation) Mino cells
Summary of the method: as §1

Sequence of BTK (Q06187 whole entry): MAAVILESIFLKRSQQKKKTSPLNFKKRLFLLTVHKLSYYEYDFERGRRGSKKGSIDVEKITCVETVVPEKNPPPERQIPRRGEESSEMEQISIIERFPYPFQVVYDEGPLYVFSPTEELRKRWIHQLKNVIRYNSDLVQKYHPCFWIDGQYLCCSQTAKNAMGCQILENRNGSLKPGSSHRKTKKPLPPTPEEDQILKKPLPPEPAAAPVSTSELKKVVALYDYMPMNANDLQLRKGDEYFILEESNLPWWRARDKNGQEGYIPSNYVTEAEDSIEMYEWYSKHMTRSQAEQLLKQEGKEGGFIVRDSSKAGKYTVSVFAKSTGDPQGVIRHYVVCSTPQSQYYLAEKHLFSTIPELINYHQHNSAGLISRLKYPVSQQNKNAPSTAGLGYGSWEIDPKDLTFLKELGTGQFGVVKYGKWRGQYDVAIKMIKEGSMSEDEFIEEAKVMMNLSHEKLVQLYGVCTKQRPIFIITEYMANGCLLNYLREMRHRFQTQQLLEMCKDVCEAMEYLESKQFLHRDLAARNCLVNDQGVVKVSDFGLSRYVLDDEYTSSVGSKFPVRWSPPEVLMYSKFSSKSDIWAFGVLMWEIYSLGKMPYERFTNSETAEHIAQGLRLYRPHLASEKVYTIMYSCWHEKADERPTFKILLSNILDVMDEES

| Compound | Dmax (BTK) | DC50 (BTK) | IC50 (JeKo-1 cells) | IC50 (Mino cells) |
| --- | --- | --- | --- | --- |
| Nc1ncnc2c1c(-c1ccc(Oc3ccccc3)cc1)nn2[C@@H]1CCCN(C(=O)N2CCN(CCN3CCC(c4ccc5c(c4)CN(C4CCC(=O)NC4=O)C5=O)CC3)CC2)C1 (stereo partly drawn) [Compound 70, 3-(5-(1-(2-(4-((R)-3-(4-amino-3-(4-phenoxyphenyl)-1H-pyrazolo[3,4-d]pyrimidin-1-yl)piperidine-1-carbonyl)piperazin-1-yl)ethyl)piperidin-4-yl)-1-oxoisoindolin-2-yl)piperidine-2,6-dione] | > 90% | < 10 nM | 1000 to 10000 nM | 1000 to 10000 nM |
| Nc1ncnc2c1c(-c1ccc(Oc3ccccc3)cc1)nn2C1CCCN(CCOCCOCCN2CCN(c3ccc4c(c3)C(=O)N(C3CCC(=O)NC3=O)C4=O)CC2)C1 (centres unmarked) [Compound 3, 5-(4-(2-(2-(2-(3-(4-amino-3-(4-phenoxyphenyl)-1H-pyrazolo[3,4-d]pyrimidin-1-yl)piperidin-1-yl)ethoxy)ethoxy)ethyl)piperazin-1-yl)-2-(2,6-dioxopiperidin-3-yl)isoindoline-1,3-dione] | > 90% | < 10 nM | 1000 to 10000 nM | 1000 to 10000 nM |
| Nc1ncnc2c1c(-c1ccc(Oc3ccccc3)cc1)nn2[C@@H]1CCCN(C2CCN(C(=O)N3CCN(CCN4CCN(c5ccc6c(c5)C(=O)N(C5CCC(=O)NC5=O)C6=O)CC4)CC3)CC2)C1 (stereo partly drawn) [Compound 175, 5-(4-(2-(4-((R)-3-(4-amino-3-(4-phenoxyphenyl)-1H-pyrazolo[3,4-d]pyrimidin-1-yl)-[1,4′-bipiperidine]-1′-carbonyl)piperazin-1-yl)ethyl)piperazin-1-yl)-2-(2,6-dioxopiperidin-3-yl)isoindoline-1,3-dione] | > 90% | 10 to 50 nM | 1000 to 10000 nM | 1000 to 10000 nM |
| Nc1ncnc2c1c(-c1ccc(Oc3ccccc3)cc1)nn2[C@@H]1CCCN(CC2CCN(CCN3CCC(c4ccc5c(c4)C(=O)N(C4CCC(=O)NC4=O)C5=O)CC3)CC2)C1 (stereo partly drawn) [Compound 135, 5-(1-(2-(4-(((R)-3-(4-amino-3-(4-phenoxyphenyl)-1H-pyrazolo[3,4-d]pyrimidin-1-yl)piperidin-1-yl)methyl)piperidin-1-yl)ethyl)piperidin-4-yl)-2-(2,6-dioxopiperidin-3-yl)isoindoline-1,3-dione] | > 90% | < 10 nM | 1000 to 10000 nM | < 1000 nM |
| Nc1ncnc2c1c(-c1ccc(Oc3ccccc3)cc1)nn2C1CCCN(CCOCCOCCC2CCN(c3ccc4c(c3)CN(C3CCC(=O)NC3=O)C4=O)CC2)C1 (centres unmarked) [Compound 22, 3-(5-(4-(2-(2-(2-(3-(4-amino-3-(4-phenoxyphenyl)-1H-pyrazolo[3,4-d]pyrimidin-1-yl)piperidin-1-yl)ethoxy)ethoxy)ethyl)piperidin-1-yl)-1-oxoisoindolin-2-yl)piperidine-2,6-dione] | > 90% | < 10 nM | 1000 to 10000 nM | < 1000 nM |
| Nc1ncnc2c1c(-c1ccc(Oc3ccccc3)cc1)nn2[C@@H]1CCCN(C2CCN(C(=O)N3CCC(CN4CCC(c5ccc6c(c5)CN(C5CCC(=O)NC5=O)C6=O)CC4)CC3)CC2)C1 (stereo partly drawn) [Compound 174, 3-(5-(1-((1-((R)-3-(4-amino-3-(4-phenoxyphenyl)-1H-pyrazolo[3,4-d]pyrimidin-1-yl)-[1,4′-bipiperidine]-1′-carbonyl)piperidin-4-yl)methyl)piperidin-4-yl)-1-oxoisoindolin-2-yl)piperidine-2,6-dione] | > 90% | 10 to 50 nM | 1000 to 10000 nM | 1000 to 10000 nM |
| Nc1ncnc2c1c(-c1ccc(Oc3ccccc3)cc1)nn2[C@@H]1CCCN(C2CCN(CCC3CCN(c4ccc5c(c4)C(=O)N(C4CCC(=O)NC4=O)C5=O)CC3)CC2)C1 (stereo partly drawn) [Compound 145, 5-(4-(2-((R)-3-(4-amino-3-(4-phenoxyphenyl)-1H-pyrazolo[3,4-d]pyrimidin-1-yl)-[1,4′-bipiperidin]-1′-yl)ethyl)piperidin-1-yl)-2-(2,6-dioxopiperidin-3-yl)isoindoline-1,3-dione] | > 75% | > 50 nM | > 10000 nM | > 10000 nM |
| Nc1ncnc2c1c(-c1ccc(Oc3ccccc3)cc1)nn2[C@@H]1CCCN(C2CCN(C(=O)N3CCC(CCN4CCN(c5ccc6c(c5)CN(C5CCC(=O)NC5=O)C6=O)CC4)CC3)CC2)C1 (stereo partly drawn) [Compound 182, 3-(5-(4-(2-(1-((R)-3-(4-amino-3-(4-phenoxyphenyl)-1H-pyrazolo[3,4-d]pyrimidin-1-yl)-[1,4′-bipiperidine]-1′-carbonyl)piperidin-4-yl)ethyl)piperazin-1-yl)-1-oxoisoindolin-2-yl)piperidine-2,6-dione] | > 75% | 10 to 50 nM | 1000 to 10000 nM | 1000 to 10000 nM |
| Nc1ncnc2c1c(-c1ccc(Oc3ccccc3)cc1)nn2[C@@H]1CCCN(C(=O)N2CCC(CCCN3CCN(c4ccc5c(c4)CN(C4CCC(=O)NC4=O)C5=O)CC3)CC2)C1 (stereo partly drawn) [Compound 106, 3-(5-(4-(3-(1-((R)-3-(4-amino-3-(4-phenoxyphenyl)-1H-pyrazolo[3,4-d]pyrimidin-1-yl)piperidine-1-carbonyl)piperidin-4-yl)propyl)piperazin-1-yl)-1-oxoisoindolin-2-yl)piperidine-2,6-dione] | > 75% | > 50 nM | > 10000 nM | > 10000 nM |
| Nc1ncnc2c1c(-c1ccc(Oc3ccccc3)cc1)nn2[C@@H]1CCCN(C2CCN(C(=O)N3CCN(CCCC4CCN(c5ccc6c(c5)CN(C5CCC(=O)NC5=O)C6=O)CC4)CC3)CC2)C1 (stereo partly drawn) [Compound 190, 3-(5-(4-(3-(4-((R)-3-(4-amino-3-(4-phenoxyphenyl)-1H-pyrazolo[3,4-d]pyrimidin-1-yl)-[1,4′-bipiperidine]-1′-carbonyl)piperazin-1-yl)propyl)piperidin-1-yl)-1-oxoisoindolin-2-yl)piperidine-2,6-dione] | > 50% | > 50 nM | > 10000 nM | > 10000 nM |
| Nc1ncnc2c1c(-c1ccc(Oc3ccccc3)cc1)nn2C1CCN(C(=O)N2CCC(CCC3CCN(c4ccc5c(c4)C(=O)N(C4CCC(=O)NC4=O)C5=O)CC3)CC2)CC1 (centres unmarked) [Compound 101, 5-(4-(2-(1-(4-(4-amino-3-(4-phenoxyphenyl)-1H-pyrazolo[3,4-d]pyrimidin-1-yl)piperidine-1-carbonyl)piperidin-4-yl)ethyl)piperidin-1-yl)-2-(2,6-dioxopiperidin-3-yl)isoindoline-1,3-dione] | > 90% | 10 to 50 nM | > 10000 nM | > 10000 nM |
| Nc1ncnc2c1c(-c1ccc(Oc3ccccc3)cc1)nn2C1CCN(C(=O)N2CCC(CCCC3CCN(c4ccc5c(c4)C(=O)N(C4CCC(=O)NC4=O)C5=O)CC3)CC2)CC1 (centres unmarked) [Compound 125, 5-(4-(3-(1-(4-(4-amino-3-(4-phenoxyphenyl)-1H-pyrazolo[3,4-d]pyrimidin-1-yl)piperidine-1-carbonyl)piperidin-4-yl)propyl)piperidin-1-yl)-2-(2,6-dioxopiperidin-3-yl)isoindoline-1,3-dione] | > 90% | > 50 nM | 1000 to 10000 nM | > 10000 nM |
| Nc1ncnc2c1c(-c1ccc(Oc3ccccc3)cc1)nn2C1CCN(CCOCCOCCC2CCN(c3ccc4c(c3)CN(C3CCC(=O)NC3=O)C4=O)CC2)CC1 (centres unmarked) [Compound 18, 3-(5-(4-(2-(2-(2-(4-(4-amino-3-(4-phenoxyphenyl)-1H-pyrazolo[3,4-d]pyrimidin-1-yl)piperidin-1-yl)ethoxy)ethoxy)ethyl)piperidin-1-yl)-1-oxoisoindolin-2-yl)piperidine-2,6-dione] | > 90% | < 10 nM | < 1000 nM | 1000 to 10000 nM |
| Nc1ncnc2c1c(-c1ccc(Oc3ccccc3)cc1)nn2C1CCN(C(=O)N2CCN(CCCN3CCN(c4ccc5c(c4)CN(C4CCC(=O)NC4=O)C5=O)CC3)CC2)CC1 (centres unmarked) [Compound 120, 3-(5-(4-(3-(4-(4-(4-amino-3-(4-phenoxyphenyl)-1H-pyrazolo[3,4-d]pyrimidin-1-yl)piperidine-1-carbonyl)piperazin-1-yl)propyl)piperazin-1-yl)-1-oxoisoindolin-2-yl)piperidine-2,6-dione] | > 75% | > 50 nM | > 10000 nM | > 10000 nM |
| Nc1ncnc2c1c(-c1ccc(Oc3ccccc3)cc1)nn2C1CCN(C(=O)N2CCC(CN3CCC(c4ccc5c(c4)CN(C4CCC(=O)NC4=O)C5=O)CC3)CC2)CC1 (centres unmarked) [Compound 92, 3-(5-(1-((1-(4-(4-amino-3-(4-phenoxyphenyl)-1H-pyrazolo[3,4-d]pyrimidin-1-yl)piperidine-1-carbonyl)piperidin-4-yl)methyl)piperidin-4-yl)-1-oxoisoindolin-2-yl)piperidine-2,6-dione] | > 90% | < 10 nM | 1000 to 10000 nM | < 1000 nM |
| Nc1ncnc2c1c(-c1ccc(Oc3ccccc3)cc1)nn2[C@@H]1CCCN(C2CCN(C(=O)N3CCC(N4CCC(c5ccc6c(c5)C(=O)N(C5CCC(=O)NC5=O)C6=O)CC4)CC3)CC2)C1 (stereo partly drawn) [Compound 165, 5-(1′-((R)-3-(4-amino-3-(4-phenoxyphenyl)-1H-pyrazolo[3,4-d]pyrimidin-1-yl)-[1,4′-bipiperidine]-1′-carbonyl)-[1,4′-bipiperidin]-4-yl)-2-(2,6-dioxopiperidin-3-yl)isoindoline-1,3-dione] | > 75% | 10 to 50 nM | > 10000 nM | 1000 to 10000 nM |
| Nc1ncnc2c1c(-c1ccc(Oc3ccccc3)cc1)nn2[C@@H]1CCCN(CC2CCN(C(=O)N3CCC(CN4CCN(c5ccc6c(c5)CN(C5CCC(=O)NC5=O)C6=O)CC4)CC3)CC2)C1 (stereo partly drawn) [Compound 32, 3-(5-(4-((1-(4-(((R)-3-(4-amino-3-(4-phenoxyphenyl)-1H-pyrazolo[3,4-d]pyrimidin-1-yl)piperidin-1-yl)methyl)piperidine-1-carbonyl)piperidin-4-yl)methyl)piperazin-1-yl)-1-oxoisoindolin-2-yl)piperidine-2,6-dione] | > 90% | 10 to 50 nM | 1000 to 10000 nM | 1000 to 10000 nM |
